Measured values as given in patent US7553966B2, “Glucocorticoid mimetics, methods of making them, pharmaceutical compositions, and uses thereof” (Boehringer Ingelheim Pharmaceuticals, Inc., priority 2002, dated 2009).

Experiments:
glucocorticoid receptor = assay: Glucocorticoid Receptor Cell Assays (agonist activity in one or more of the above assays); format: cell-based; conditions: qualitative statement; assay not specified
Experimental: B. Glucocorticoid Receptor Cell Assays
1. Induction of Aromatase in Fibroblasts (Cell Assay for Transactivation)
Dexamethasone, a synthetic ligand to the glucocorticoid receptor (GR), induces expression of aromatase in human foreskin fibroblast cells. The activity of aromatase is measured by the conversion of testosterone to estradiol in culture media.
On the day of the experiment, the media in the wells is replaced with fresh media. Cells are treated with test compounds to final concentrations of 10^−5 M to 10^−8 M, and testosterone to a final concentration of 300 ng/mL. Each well has a total volume of 100 μL. Samples are made in duplicates. Control wells include: (a) wells that receive testosterone only, and (b) wells that receive testosterone plus 2 μM of dexamethasone to provide maximum induction of aromatase. Plates are incubated at 37° C. overnight (15 to 18 hours), and supernatants are harvested at the end of incubation. […] The amount of estradiol is inversely proportional to the ELISA signals in each well. The extent of aromatase induction by test compounds is expressed as a relative percentage to dexamethasone. EC50 values of test compounds are derived by non-linear curve fitting.
2. Inhibition of IL-6 Production in Fibroblasts (Cell Assay for Transrepression)
Human foreskin fibroblast cells produce IL-6 in response to stimulation by pro-inflammatory cytokine IL-1.
On the next day, media in the wells is replaced with fresh media. Cells are treated with IL-1 (rhIL-1α, R&D Systems Cat. No. 200-LA) to a final concentration of 1 ng/mL, and with test compounds to final concentrations of 10^−5 M to 10^−8 M, in a total volume of 200 μL per well. Samples are done in duplicates. […] Positive control wells receive IL-1 only and represent maximum (or 100%) amount of IL-6 production. Plates are incubated at 37° C. overnight (15 to 18 hours), and supernatants are harvested at the end of incubation. IL-6 levels in the supernatants are determined by the ELISA kits for IL-6 (MedSystems Diagnostics GmbH, Vienna, Austria, Cat. No. BMS213TEN) according to manufacture's instructions. The extent of inhibition of IL-6 by test compounds is expressed in percentage relative to positive controls. IC50 values of test compounds are derived by non-linear curve fitting.
Evaluation of agonist or antagonist activity of compounds binding to the glucocorticoid receptor may be determined by any of the assays.
3. Modulation of Tyrosine Aminotransferase (TAT) Induction in Rat Hepatoma Cells
Testing of compounds for agonist or antagonist activity in induction of tyrosine aminotransferase (TAT) in rat hepatoma cells.
H4-II-E-C3 cells were incubated overnight in 96 well plates (20,000 cells/100 μL/well) in MEM medium containing 10% heat inactivated FBS and 1% nonessential amino acids. On the next day, cells were stimulated with the indicated concentrations of dexamethasone or test compound (dissolved in DMSO, final DMSO concentration 0.2%) for 18 hours. Control cells were treated with 0.2% DMSO. After 18 hours, the cells were lysed in a buffer containing 0.1% Triton X-100 and the TAT activity was measured in a photometric assay using tyrosine and alpha-ketoglutarate as substrates.
For measuring antagonist activity, the hepatoma cells were pre-stimulated by addition of dexamethasone (concentration ranges from 3×10^−9 M to 3×10^−8 M) shortly before the test compound was applied to the cells.
4. Modulation of MMTV-Luc Induction in HeLa Cells
Testing of compounds for agonist or antagonist activity in stimulation of MMTV-(mouse mammary tumor virus) promoter in HeLa cells.
Cells were cultured overnight in DMEM medium without phenol red, supplemented with 3% CCS (charcoal treated calf serum) and then transferred to 96 well plates (15,000 cells/100 μL/well).

[1] = target: T1, human glucocorticoid receptor (GR) complex (Homo sapiens, UniProt P04150); assay: Glucocorticoid Receptor Competitive Binding Assay (fluorescence polarization, TAMRA-labeled dexamethasone probe); conditions: qualitative statement; competition with TAMRA-labeled dexamethasone
T1 construct: made in house; host or cells: insect expression system (baculovirus lysate)
T1 sequence (P04150 1-777): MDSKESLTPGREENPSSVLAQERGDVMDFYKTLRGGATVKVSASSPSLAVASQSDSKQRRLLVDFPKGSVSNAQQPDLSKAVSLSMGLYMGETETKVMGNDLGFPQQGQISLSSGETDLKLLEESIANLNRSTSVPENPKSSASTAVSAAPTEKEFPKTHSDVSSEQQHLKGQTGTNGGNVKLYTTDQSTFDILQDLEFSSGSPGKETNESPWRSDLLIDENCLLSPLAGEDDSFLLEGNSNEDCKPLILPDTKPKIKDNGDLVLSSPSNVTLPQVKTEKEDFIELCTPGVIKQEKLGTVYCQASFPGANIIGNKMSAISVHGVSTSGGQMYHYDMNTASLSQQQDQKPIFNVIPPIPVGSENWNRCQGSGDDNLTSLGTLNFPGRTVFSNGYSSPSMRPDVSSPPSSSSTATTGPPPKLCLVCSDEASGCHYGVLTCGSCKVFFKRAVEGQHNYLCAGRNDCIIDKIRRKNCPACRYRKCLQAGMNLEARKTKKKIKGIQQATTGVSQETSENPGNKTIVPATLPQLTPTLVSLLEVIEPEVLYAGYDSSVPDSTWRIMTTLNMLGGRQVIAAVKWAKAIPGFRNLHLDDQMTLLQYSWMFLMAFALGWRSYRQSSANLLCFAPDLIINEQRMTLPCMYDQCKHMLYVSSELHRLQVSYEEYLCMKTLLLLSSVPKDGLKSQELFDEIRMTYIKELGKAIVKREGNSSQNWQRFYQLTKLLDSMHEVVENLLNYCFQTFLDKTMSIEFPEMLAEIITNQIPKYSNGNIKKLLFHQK
Method in brief: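 Competition with TAMRA-dexamethasone for a human GR complex expressed in insect cells, read by fluorescence polarization. Buffer was 10 mM TES, 50 mM KCl, 20 mM Na2MoO4, 1.5 mM EDTA, 0.04% CHAPS, 10% glycerol, 1 mM DTT, pH 7.4.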

CC(C)(CC(O)(Cc1ccnc2cccc(F)c12)C(F)(F)F)c1ccc(F)cc1 (stereo not shown) [1,1,1-Trifluoro-4-(4-fluorophenyl)-2-(5-fluoroquinolin-4-ylmethyl)-4-methylpentan-2-ol]
activity as agonists of the glucocorticoid receptor function in one or more of the above assays (glucocorticoid receptor): potent agonists | activity in the GR binding assay [1]: potent activity

Cc1cccc2[nH]c(CC(O)(CC(C)(C)c3ccc(F)cc3)C(F)(F)F)cc12 (stereo not shown) [1,1,1-Trifluoro-4-(4-fluorophenyl)-4-methyl-2-(4-methyl-1H-indol-2-ylmethyl)pentan-2-ol]
activity as agonists of the glucocorticoid receptor function in one or more of the above assays (glucocorticoid receptor): potent agonists | activity in the GR binding assay [1]: potent activity

CC(C)(CC(O)(Cc1cc2ccccc2[nH]1)C(F)(F)F)c1cc(F)cc2c1OCC2 (stereo not shown) [1,1,1-Trifluoro-4-(5-fluoro-2,3-dihydrobenzofuran-7-yl)-2-(1H-indol-2-ylmethyl)-4-methylpentan-2-ol]
activity as agonists of the glucocorticoid receptor function in one or more of the above assays (glucocorticoid receptor): potent agonists | activity in the GR binding assay [1]: potent activity

CC(C)(CC(O)(Cc1ccnc2ccccc12)C(F)(F)F)c1cc(F)cc2c1OCC2 (stereo not shown) [1,1,1-Trifluoro-4-(5-fluoro-2,3-dihydrobenzofuran-7-yl)-4-methyl-2-quinolin-4-ylmethylpentan-2-ol]
activity as agonists of the glucocorticoid receptor function in one or more of the above assays (glucocorticoid receptor): potent agonists | activity in the GR binding assay [1]: potent activity

COc1ccc(F)cc1C(C)(C)CC(O)(Cc1cc2ccccc2[nH]1)C(F)(F)F (stereo not shown) [1,1,1-Trifluoro-4-(5-fluoro-2-methoxyphenyl)-2-(1H-indol-2-ylmethyl)-4-methylpentan-2-ol]
activity as agonists of the glucocorticoid receptor function in one or more of the above assays (glucocorticoid receptor): potent agonists | activity in the GR binding assay [1]: potent activity

COc1ccc(F)cc1C(C)(C)CC(O)(Cc1ccnc2cc(F)ccc12)C(F)(F)F (stereo not shown) [1,1,1-Trifluoro-4-(5-fluoro-2-methoxyphenyl)-2-(7-fluoroquinolin-4-ylmethyl)-4-methylpentan-2-ol]
activity as agonists of the glucocorticoid receptor function in one or more of the above assays (glucocorticoid receptor): potent agonists | activity in the GR binding assay [1]: potent activity

COc1ccc(F)cc1C(C)(C)CC(O)(Cc1cc2ccncc2[nH]1)C(F)(F)F (stereo not shown) [1,1,1-Trifluoro-4-(5-fluoro-2-methoxyphenyl)-4-methyl-2-(1H-pyrrolo[2,3-c]pyridin-2-ylmethyl)pentan-2-ol]
activity as agonists of the glucocorticoid receptor function in one or more of the above assays (glucocorticoid receptor): potent agonists | activity in the GR binding assay [1]: potent activity

COc1ccc(F)cc1C(C)(C)CC(O)(Cc1cc2cnccc2[nH]1)C(F)(F)F (stereo not shown) [1,1,1-Trifluoro-4-(5-fluoro-2-methoxyphenyl)-4-methyl-2-(1H-pyrrolo[3,2-c]pyridin-2-ylmethyl)pentan-2-ol]
activity as agonists of the glucocorticoid receptor function in one or more of the above assays (glucocorticoid receptor): potent agonists | activity in the GR binding assay [1]: potent activity

COc1ccc(F)cc1C(C)(C)CC(O)(Cc1[nH]c2cnccc2c1C)C(F)(F)F (stereo not shown) [1,1,1-Trifluoro-4-(5-fluoro-2-methoxyphenyl)-4-methyl-2-(3-methyl-1H-pyrrolo[2,3-c]pyridin-2-ylmethyl)pentan-2-ol]
activity as agonists of the glucocorticoid receptor function in one or more of the above assays (glucocorticoid receptor): potent agonists | activity in the GR binding assay [1]: potent activity

COc1ccc(F)cc1C(C)(C)CC(O)(Cc1ccnc2ccccc12)C(F)(F)F (stereo not shown) [1,1,1-Trifluoro-4-(5-fluoro-2-methoxyphenyl)-4-methyl-2-(quinolin-4-ylmethyl)pentan-2-ol]
activity as agonists of the glucocorticoid receptor function in one or more of the above assays (glucocorticoid receptor): potent agonists | activity in the GR binding assay [1]: potent activity

Cc1ccc(F)cc1C(C)(C)CC(O)(Cc1cc2ccccc2[nH]1)C(F)(F)F (stereo not shown) [1,1,1-Trifluoro-4-(5-fluoro-2-methylphenyl)-2-(1H-indol-2-ylmethyl)-4-methylpentan-2-ol]
activity as agonists of the glucocorticoid receptor function in one or more of the above assays (glucocorticoid receptor): potent agonists | activity in the GR binding assay [1]: potent activity

Cc1ccc(F)cc1C(C)(C)CC(O)(Cc1cc2c(C)cccc2[nH]1)C(F)(F)F (stereo not shown) [1,1,1-Trifluoro-4-(5-fluoro-2-methylphenyl)-4-methyl-2-(4-methyl-1H-indol-2-ylmethyl)pentan-2-ol]
activity as agonists of the glucocorticoid receptor function in one or more of the above assays (glucocorticoid receptor): potent agonists | activity in the GR binding assay [1]: potent activity

CC(C)(CC(O)(Cc1ccnc2ccccc12)C(F)(F)F)c1cccc(C(F)(F)F)c1 (stereo not shown) [1,1,1-Trifluoro-4-methyl-2-quinolin-4-ylmethyl-4-(3-trifluoromethylphenyl)pentan-2-ol]
activity as agonists of the glucocorticoid receptor function in one or more of the above assays (glucocorticoid receptor): potent agonists | activity in the GR binding assay [1]: potent activity

Cc1cc2c(c(C(C)(C)CC(O)(Cc3ccnc4ccccc34)C(F)(F)F)c1)OCC2 (stereo not shown) [1,1,1-Trifluoro-4-methyl-4-(5-methyl-2,3-dihydrobenzofuran-7-yl)-2-quinolin-4-ylmethylpentan-2-ol]
activity as agonists of the glucocorticoid receptor function in one or more of the above assays (glucocorticoid receptor): potent agonists | activity in the GR binding assay [1]: potent activity

CC(C)(CC(O)(Cc1cc2ccncc2[nH]1)C(F)(F)F)c1ccccc1 (stereo not shown) [1,1,1-Trifluoro-4-methyl-4-phenyl-2-(1H-pyrrolo[2,3-c]pyridin-2-ylmethyl)pentan-2-ol]
activity as agonists of the glucocorticoid receptor function in one or more of the above assays (glucocorticoid receptor): potent agonists | activity in the GR binding assay [1]: potent activity

CC(C)(CC(O)(Cc1cc2cnccc2[nH]1)C(F)(F)F)c1ccccc1 (stereo not shown) [1,1,1-Trifluoro-4-methyl-4-phenyl-2-(1H-pyrrolo[3,2-c]pyridin-2-ylmethyl)pentan-2-ol]
activity as agonists of the glucocorticoid receptor function in one or more of the above assays (glucocorticoid receptor): potent agonists | activity in the GR binding assay [1]: potent activity

CC(C)(CC(O)(Cc1ccnc2ccccc12)C(F)(F)F)c1ccccc1 (stereo not shown) [1,1,1-Trifluoro-4-methyl-4-phenyl-2-quinolin-4-ylmethylpentan-2-ol]
activity as agonists of the glucocorticoid receptor function in one or more of the above assays (glucocorticoid receptor): potent agonists | activity in the GR binding assay [1]: potent activity
